Reference: US20130102595A1 (Curis, Inc., priority 2011, published 2013)

How the values were obtained:
CaPan2 = test: Cell proliferation assay (CellTiter-Glo); assay type: cell-based; conditions: Homo sapiens, Capan-2; Pancreas; 72 hours, 0.5% fetal bovine serum; read-out: antiproliferative activity IC50, CaPan2
Method: (§1) Cell Proliferation Assay:
(§2) Cancer cell lines were plated at 5,000 to 10,000 per well in 96-well flat bottomed plates with various concentration of compounds. The cells were incubated with compounds for 72 hours in the presence of 0.5% of fetal bovine serum. Growth inhibition was accessed by adenosine triphosphate (ATP) content assay using Promega CellTiter-Glo kit. Promega CellTiter-Glo kit is an ATP monitoring system based on firefly luciferase. Briefly, 16 μl of mammalian cell lysis and substrate solution was added to 84 μl of culture medium per well to lyse the cells and stabilize the ATP. The mixture was shaken and incubated for 30 minutes and subsequently the luminescence was measured.

MiaPaca1 = test: Cell proliferation assay (CellTiter-Glo); assay type: cell-based; conditions: Pancreas; 72 hours, 0.5% fetal bovine serum; read-out: antiproliferative activity IC50, MiaPaca1
Method: as §1, §2

CFPAC-1 = test: Cell proliferation assay (CellTiter-Glo); assay type: cell-based; conditions: Homo sapiens, Pancreas, 72 hours, 0.5% fetal bovine serum, read-out: antiproliferative activity IC50, CFPAC-1
Method: as §1, §2

SW1990 = test: Cell proliferation assay (CellTiter-Glo); assay type: cell-based; conditions: Homo sapiens, Pancreas, 72 hours, 0.5% fetal bovine serum, read-out: antiproliferative activity IC50, SW1990
Method: as §1, §2

MDA-MB-231 = test: Cell proliferation assay (CellTiter-Glo); assay type: cell-based; conditions: Homo sapiens, Breast, 72 hours, 0.5% fetal bovine serum, read-out: antiproliferative activity IC50, MDA-MB-231
Method: as §1, §2

Calu6 = test: Cell proliferation assay (CellTiter-Glo); assay type: cell-based; conditions: Homo sapiens, Calu-6; NSCLC; 72 hours, 0.5% fetal bovine serum; read-out: antiproliferative activity IC50, Calu6
Method: as §1, §2

WiDr = test: Cell proliferation assay (CellTiter-Glo); assay type: cell-based; conditions: Homo sapiens, Colon, 72 hours, 0.5% fetal bovine serum, read-out: antiproliferative activity IC50, WiDr
Method: as §1, §2

PANC-1 = test: Cell proliferation assay (CellTiter-Glo); assay type: cell-based; conditions: Homo sapiens, Pancreas, 72 hours, 0.5% fetal bovine serum, read-out: antiproliferative activity IC50, PANC-1
Method: as §1, §2

[1] = test system: HDACs (HeLa cell nuclear extracts); test: HDAC enzymatic activity, Biomol Color de Lys system; assay type: biochemical; conditions: 1 hour, 25° C.
In short: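 IC50 from sigmoidal fit of developer-terminated fluorescence (ex 350-380/em 440-460 nm). Reaction: 1 h at room temperature (25 °C), HeLa nuclear extract as HDAC source, artificial substrate, buffer of 50 mM Tris/Cl pH 8.0 with 137 mM NaCl, 2.7 mM KCl and 1 mM MgCl2.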

PI3Kα (p110α/p85α) = target: T1, PI3Kα (p110α/p85α) (Homo sapiens, UniProt P42336); test: PI3Kα ADP-Glo assay; assay type: biochemical; conditions: 20 μM PIP2, 10 μM ATP, 30 minutes
T1 construct: GST (N); made in house; host or cells: Baculovirus-infected Sf9 cells
T1 sequence (P42336 whole entry): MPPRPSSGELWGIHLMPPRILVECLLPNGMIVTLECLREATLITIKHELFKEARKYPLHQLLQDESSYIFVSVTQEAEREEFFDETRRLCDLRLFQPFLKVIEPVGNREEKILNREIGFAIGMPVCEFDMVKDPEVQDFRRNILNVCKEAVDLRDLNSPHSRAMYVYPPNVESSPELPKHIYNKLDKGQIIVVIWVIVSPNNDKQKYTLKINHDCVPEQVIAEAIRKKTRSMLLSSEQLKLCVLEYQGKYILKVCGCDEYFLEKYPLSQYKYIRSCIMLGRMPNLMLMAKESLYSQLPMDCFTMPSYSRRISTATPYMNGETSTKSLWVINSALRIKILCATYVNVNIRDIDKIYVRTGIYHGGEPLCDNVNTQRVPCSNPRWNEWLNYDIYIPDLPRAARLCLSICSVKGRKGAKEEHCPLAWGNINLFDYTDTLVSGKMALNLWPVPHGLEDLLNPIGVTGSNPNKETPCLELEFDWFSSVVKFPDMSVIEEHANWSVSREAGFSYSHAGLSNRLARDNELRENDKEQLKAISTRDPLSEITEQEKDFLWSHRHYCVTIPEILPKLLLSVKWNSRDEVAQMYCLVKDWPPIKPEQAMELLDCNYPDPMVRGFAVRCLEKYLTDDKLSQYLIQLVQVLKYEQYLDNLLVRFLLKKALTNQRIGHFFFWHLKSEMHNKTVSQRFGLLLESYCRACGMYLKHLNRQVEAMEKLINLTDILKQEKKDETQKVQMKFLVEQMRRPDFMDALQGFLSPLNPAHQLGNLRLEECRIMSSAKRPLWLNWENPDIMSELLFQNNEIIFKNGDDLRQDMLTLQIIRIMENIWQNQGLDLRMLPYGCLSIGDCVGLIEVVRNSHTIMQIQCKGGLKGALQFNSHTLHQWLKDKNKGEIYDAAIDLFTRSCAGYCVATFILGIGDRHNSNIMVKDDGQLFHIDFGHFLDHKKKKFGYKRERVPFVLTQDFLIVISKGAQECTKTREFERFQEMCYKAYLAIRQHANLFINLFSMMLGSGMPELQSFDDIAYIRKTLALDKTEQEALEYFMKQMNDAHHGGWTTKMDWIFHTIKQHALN
T1 sequence (P27986 whole entry partner): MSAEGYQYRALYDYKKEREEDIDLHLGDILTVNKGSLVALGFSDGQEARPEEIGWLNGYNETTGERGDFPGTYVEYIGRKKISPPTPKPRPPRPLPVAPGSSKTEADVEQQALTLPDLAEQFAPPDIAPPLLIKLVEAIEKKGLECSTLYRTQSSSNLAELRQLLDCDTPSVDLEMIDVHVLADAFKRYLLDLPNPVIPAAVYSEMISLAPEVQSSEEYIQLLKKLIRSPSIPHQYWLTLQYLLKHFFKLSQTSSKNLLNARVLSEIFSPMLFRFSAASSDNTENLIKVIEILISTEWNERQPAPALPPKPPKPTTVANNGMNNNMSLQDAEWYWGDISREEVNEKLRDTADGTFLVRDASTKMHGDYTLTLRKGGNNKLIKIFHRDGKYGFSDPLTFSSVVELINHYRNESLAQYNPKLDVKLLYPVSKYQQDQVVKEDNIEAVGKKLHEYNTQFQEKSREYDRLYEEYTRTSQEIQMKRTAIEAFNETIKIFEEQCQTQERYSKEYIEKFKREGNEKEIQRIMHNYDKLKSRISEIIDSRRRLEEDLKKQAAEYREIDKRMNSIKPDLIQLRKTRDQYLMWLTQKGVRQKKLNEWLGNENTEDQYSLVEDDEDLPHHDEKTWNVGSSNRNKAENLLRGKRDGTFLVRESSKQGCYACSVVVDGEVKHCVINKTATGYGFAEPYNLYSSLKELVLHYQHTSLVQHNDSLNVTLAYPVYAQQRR
In short: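 Luminescent ADP-Glo detection, after depletion of residual ATP, quantified ADP made by PI3Kα phosphorylating 20 μM PIP2 at 10 μM ATP. The kinase step ran 30 min at room temperature in HEPES pH 7.4 with MgCl2, DTT and orthovanadate, using baculovirus/Sf9-expressed full-length p110α/p85α complex.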

[2] = target: T2, mTor serine/threonine protein kinase (Homo sapiens, UniProt P42345); test: mTor kinase radioisotope assay; assay type: biochemical; conditions: 70 uM ATP, 40 minutes; read-out: m-TOR IC50
T2 construct: FLAG; made in house; host or cells: Baculovirus expression system in Sf21 cells
Method: (F) an In Vitro Assay which-Determines the Ability of a Test Compound to Inhibit mTor Serine/Threonine Protein Kinase.
The ability of compounds to inhibit mTor activity was assayed using standard radioisotope assay for kinase. Briefly, FLAG-tagged, recombinant full-length human mTor (GenBank accession No. NM_004958) was expressed using baculovirus expression system in Sf21 cells and purified using antibody affinity column. Purified enzyme was incubated with c-terminal fragment of p70S6K as it's substrate in the presence of ATP. p33 ATP tracers were included in the assay to monitor the enzyme activity. Final assay condition was with 50 mM HEPES pH 7.5, 1 mM EGTA, 0.01% Tween 20, 2 mg/ml substrate, 3 mM Manganese Chloride and 70 uM of ATP and was carried out at room temperature for 40 minutes. The reaction was then stopped by the addition of 3% phosphoric acid solution. 10 ul of the reaction was spotted onto a P30 filtermat and washed three times for 5 minutes in 75 mM phosphoric acid and once in methanol prior to drying and scintillation counting. Different concentrations of compounds were added to reaction to assess the activity of compounds to inhibit mTor kinase. IC50 was calculated using Prism software with sigmoidal dose-response curve fitting.

HCT116 = test: Cell proliferation assay (CellTiter-Glo); assay type: cell-based; conditions: Homo sapiens, HCT-116; Colon; 72 hours, 0.5% fetal bovine serum; read-out: antiproliferative activity IC50, HCT116
Method: as §1, §2

IC50 (MiaPaca1) [nM]	IC50 (SW1990) [nM]	IC50 (MDA-MB-231) [nM]	IC50 (Calu6) [nM]	IC50 (PANC-1) [nM]	melting point [°C]	IC50 [1] [nM]	IC50 (PI3Kα (p110α/p85α)) [nM]	IC50 [2] [nM]	IC50 (HCT116) [nM]	SMILES	IC50 (CaPan2) [nM]	IC50 (CFPAC-1) [nM]	IC50 (WiDr) [nM]
		10 to 100	10 to 100		175 to 181	< 100	< 100	< 100		CN(Cc1cc2nc(-c3cccc(O)c3)nc(N3CCOCC3)c2s1)c1ncc(C(=O)NO)cn1 [Compound 132, N-hydroxy-2-(((2-(3-hydroxyphenyl)-4-morpholinothieno[3,2-d]pyrimidin-6-yl)methyl)(methyl)amino)pyrimidine-5-carboxamide]			100 to 1000
10 to 100	10 to 100	100 to 1000	100 to 1000	100 to 1000	231 to 239	< 100	< 100			CN(Cc1cc2nc(-c3ccc4[nH]cnc4c3)nc(N3CCOCC3)c2s1)c1ncc(C(=O)NO)cn1 [Compound 187, 2-(((2-(1H-benzo[d]imidazol-5-yl)-4-morpholinothieno[3,2-d]pyrimidin-6-yl)methyl)(methyl)amino)-N-hydroxypyrimidine-5-carboxamide]	100 to 1000	100 to 1000	10 to 100
10 to 100	10 to 100	10 to 100	100 to 1000	100 to 1000	230 to 233	< 100	< 100			Cc1nc2ccc(-c3nc(N4CCOCC4)c4sc(CN(C)c5ncc(C(=O)NO)cn5)cc4n3)cc2[nH]1 [Compound 199, N-hydroxy-2-(methyl((2-(2-methyl-3H-benzo[d]imidazol-5-yl)-4-morpholinothieno[3,2-d]pyrimidin-6-yl)methyl)amino)pyrimidine-5-carboxamide]	1000 to 10000		10 to 100
					195 to 200	< 100	< 100	< 100		CN(Cc1cc2nc(-c3ccc(N)c(CO)c3)nc(N3CCOCC3)c2s1)c1ncc(C(=O)NO)cn1 [Compound 285, 2-(((2-(4-Amino-3-(hydroxymethyl)phenyl)-4-morpholinothieno[3,2-d]pyrimidin-6-yl)methyl)(methyl)amino)-N-hydroxypyrimidine-5-carboxamide]			
					> 300	< 100	< 100	100 to 1000		CN(Cc1cc2nc(-c3ccc4[nH]c(C(F)(F)F)nc4c3)nc(N3CCOCC3)c2s1)c1ncc(C(=O)NO)cn1 [Compound 318]			

Further lines, the molecule ahead of its results:

SMILES	IC50 (MiaPaca1) [nM]	IC50 (SW1990) [nM]	IC50 (MDA-MB-231) [nM]	IC50 (Calu6) [nM]	IC50 (PANC-1) [nM]	melting point [°C]	IC50 [1] [nM]	IC50 (PI3Kα (p110α/p85α)) [nM]	IC50 [2] [nM]	IC50 (HCT116) [nM]	IC50 (CaPan2) [nM]	IC50 (CFPAC-1) [nM]	IC50 (WiDr) [nM]
CC(=O)Nc1ccc(-c2nc(N3CCOCC3)c3sc(CN(C)c4ncc(C(=O)NO)cn4)cc3n2)cn1 [Compound 112, 2-(((2-(6-acetamidopyridin-3-yl)-4-morpholinothieno[3,2-d]pyrimidin-6-yl)methyl)(methyl)amino)-N-hydroxypyrimidine-5-carboxamide]	10 to 100	10 to 100	10 to 100	10 to 100	10 to 100	197 to 201	< 100	< 100			100 to 1000	100 to 1000	100 to 1000
CNc1ncc(-c2nc(N3CCOCC3)c3sc(CN(C)c4ncc(C(=O)NO)cn4)cc3n2)cn1 [Compound 116, N-hydroxy-2-(methyl((2-(2-(methylamino)pyrimidin-5-yl)-4-morpholinothieno[3,2-d]pyrimidin-6-yl)methyl)amino)pyrimidine-5-carboxamide]	10 to 100	10 to 100	10 to 100	10 to 100	10 to 100	183 to 187	< 100	< 100	< 100		10 to 100	100 to 1000	10 to 100
Cc1nc(N)ncc1-c1nc(N2CCOCC2)c2sc(CN(C)c3ncc(C(=O)NO)cn3)cc2n1 [Compound 125, 2-(((2-(2-amino-4-methylpyrimidin-5-yl)-4-morpholinothieno[3,2-d]pyrimidin-6-yl)methyl)(methyl)amino)-N-hydroxypyrimidine-5-carboxamide]						195 to 198	< 100	< 100		10 to 100			
CC(=O)Nc1ccc(-c2nc(N3CCOCC3)c3sc(CN(C)c4ncc(C(=O)NO)cn4)cc3n2)cc1 [Compound 157, 2-(((2-(4-acetamidophenyl)-4-morpholinothieno[3,2-d]pyrimidin-6-yl)methyl)(methyl)amino)-N-hydroxypyrimidine-5-carboxamide]				10 to 100		228 to 230	< 100	< 100	< 100				100 to 1000
CN(Cc1cc2nc(-c3cnn(C)c3)nc(N3CCOCC3)c2s1)c1ncc(C(=O)NO)cn1 [Compound 246, N-Hydroxy-2-(methyl((2-(1-methyl-1H-pyrazol-4-yl)-4-morpholinothieno[3,2-d]pyrimidin-6-yl)methyl)amino)pyrimidine-5-carboxamide]						164 to 169	< 100	100 to 1000	> 10000				
CN(Cc1cc2nc(-c3ccc(OCCO)nc3)nc(N3CCOCC3)c2s1)c1ncc(C(=O)NO)cn1 [Compound 256, N-Hydroxy-2-(((2-(6-(2-hydroxyethoxy)pyridin-3-yl)-4-morpholinothieno[3,2-d]pyrimidin-6-yl)methyl)(methyl)amino)pyrimidine-5-carboxamide]						143 to 145	< 100	< 100	> 10000				
COc1ncc(-c2nc(N3CCOCC3)c3sc(CN(C)c4ncc(C(=O)NO)cn4)cc3n2)cn1 [Compound 261, N-Hydroxy-2-(((2-(2-methoxypyrimidin-5-yl)-4-morpholinothieno[3,2-d]pyrimidin-6-yl)methyl)(methyl)amino)pyrimidine-5-carboxamide]			10 to 100			215 to 220	< 100	< 100					
C[C@@H](O)c1cccc(-c2nc(N3CCOCC3)c3sc(CN(C)c4ncc(C(=O)NO)cn4)cc3n2)c1 [Compound 297, (R)—N-Hydroxy-2-(((2-(3-(1-hydroxyethyl)phenyl)-4-morpholinothieno[3,2-d]pyrimidin-6-yl)methyl)(methyl)amino)pyrimidine-5-carboxamide]						169 to 173	< 100	100 to 1000	100 to 1000				
